Experimental data: patent US10654867B2 (Genentech, Inc., priority 2016, dated 2020)

Target: T1, estrogen receptor alpha (ESR1) in MCF7 breast cancer cells (Homo sapiens, UniProt P03372)
T1 sequence (P03372 1-595): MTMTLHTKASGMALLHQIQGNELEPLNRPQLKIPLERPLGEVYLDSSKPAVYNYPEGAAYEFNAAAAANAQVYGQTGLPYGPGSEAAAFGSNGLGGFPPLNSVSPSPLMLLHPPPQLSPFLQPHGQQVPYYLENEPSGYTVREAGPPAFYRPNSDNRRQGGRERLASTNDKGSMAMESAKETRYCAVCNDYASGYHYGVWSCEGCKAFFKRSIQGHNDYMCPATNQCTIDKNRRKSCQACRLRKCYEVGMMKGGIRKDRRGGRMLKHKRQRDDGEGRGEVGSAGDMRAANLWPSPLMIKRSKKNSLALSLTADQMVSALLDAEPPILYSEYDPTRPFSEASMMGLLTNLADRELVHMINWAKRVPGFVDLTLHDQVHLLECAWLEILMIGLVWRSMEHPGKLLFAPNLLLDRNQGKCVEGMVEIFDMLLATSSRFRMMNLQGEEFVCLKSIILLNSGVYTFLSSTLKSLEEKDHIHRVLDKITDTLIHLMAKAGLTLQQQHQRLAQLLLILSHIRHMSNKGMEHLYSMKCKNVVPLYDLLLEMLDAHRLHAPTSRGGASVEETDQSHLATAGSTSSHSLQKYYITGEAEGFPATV
Assay: Breast Cancer Cell ERa High Content Fluorescence Imaging Degradation Assay (ER-alpha MCF7 HCS)
Format: cell-based
Design: endogenous in cells; host or cells: MCF7 breast cancer cells; key to ERalpha (WT) MCF7HCS (Sinf): % change in ERα level; DMSO = 0%, fulvestrant = 100% change
Conditions: 4 hours, plateau of the maximal effect; for ER-alpha MCF7HCS Sinf: DMSO and fulvestrant define 0% and 100% change in ESR1, Table 1a
Experimental: All of the exemplary Formula I, II, and III compounds in Tables 1a and 1b were made and characterized by LCMS [M+H]^+ (liquid chromatography mass spectroscopy) with detection of parent ion. All of the exemplary Formula I, II, and III compounds in Tables 1a and 1b were tested for binding to ERa (Estrogen Receptor alpha) and biological activity according to the assays, protocols, and procedures of Examples 901-907. ER-alpha MCF7 HCS Sinf (%) values in Tables 1a and 1b were measured by the Breast Cancer Cell ERa High Content Fluorescence Imaging Degradation Assay of Example 901. ER-alpha MCF7 HCS EC50 (μM) values in Tables 1a and 1b were measured by the in vitro cell proliferation assays described in Examples 902 and 903. The rat uterine wet weight assays of Examples 906 and 907 allow rapid determination of compound antagonist activity in an ER responsive tissue (immature rat uterus) while competing against the native ER ligand estradiol, i.e. antagonist mode (Ashby, J.; et al (1997) Regulatory toxicology and pharmacology: RTP, 25 (3):226-31). Exemplary Formula I, II, and III compounds in Tables 1a and 1b have the following structures, corresponding names (ChemBioDraw, Version 12.0.2, CambridgeSoft Corp., Cambridge Mass.), and biological activity. Where more than one name is associated with a Formula I, II, and III compound or intermediate, the chemical structure shall define the compound.
MCF7 breast cancer cells were seeded on day 1 at a density of 10,000 cells per well in 384 well poly-lysine coated tissue culture plate (Greiner # T-3101-4), in 50 μL/well RPMI (phenol red free), 10% FBS (Charcoal stripped), containing L-glutamine. On day 2, compounds were prepared at 2 compound source concentrations: 100 μM and 1 μM (ultimately to give 2 overlapping titration curves), in a Labcyte low dead volume plate, 10 μL/well, and 10 μL of DMSO in designated wells for backfill, and 5 μM Fulvestrant (control compound) in designated wells. Compounds and controls were dispensed using a Labcyte Echo acoustic dispenser to dispense compounds with a predefined serial dilution (1.8×, 10 point, in duplicate) and appropriate backfill and control compounds (final total volume transferred was 417.5 nL and compound dispense volume ranges from 2.5 nL to 417.5 nL; 0.84% DMSO (v/v) final), ultimately producing a concentration range from 0.05 nM to 835 nM. Cell plates were incubated at 37° C., for 4 hours. Fixation and permeabilization were carried out using a Biotek EL406 plate washer and dispenser as follows. Cells were fixed by addition of 15 μL of 16% paraformaldehyde (Electron Microscopy Sciences #15710-S) directly to the 50 μL cell culture medium in each well using the peristaltic pump 5 μL cassette on a Biotek EL406 (final concentration of formaldehyde was 3.7% w/v). Samples were incubated 30 minutes. Well contents was aspirated and 50 μL/well of Phosphate Buffered Saline (PBS) containing 0.5% w/v bovine serum albumen, 0.5% v/v Triton X-100 (Antibody Dilution Buffer) was added to each well. Samples were incubated for 30 minutes. Well contents were aspirated and washed 3 times with 100 μL/well of PBS. Immunofluorescence staining of estrogen receptor alpha (ESR1) was carried out using a Biotek EL406 plate washer and dispenser as follows. The well supernatant was aspirated from the wells and 25 μL/well of anti-ESR1 mAb (F10) (Santa Cruz sc-8002) diluted 1:1000 in Antibody Dilution Buffer was dispensed. Samples were incubated for 2 hours at room temperature. Samples were washed 4 times with 100 μL/well of PBS. 25 uL (microliters)/well of secondary antibody solution (Alexafluor 488 conjugate anti-mouse IgG (LifeTechnologies # A21202) diluted 1:1000 and Hoechst 33342 1 μg/ml diluted in Antibody Dilution Buffer) were dispensed into each well. Samples were incubated for 2 hours at room temperature. Samples were washed 3 times with 100 μL/well of PBS using a Biotek EL406. Quantitative fluorescence imaging of ESR1 was carried out using a Cellomics Arrayscan V (Thermo). […]

Compound | ERalpha (WT) MCF7HCS (Sinf) (DMSO and fulvestrant define 0% and 100% change in ESR1, Table 1b) | ER-alpha MCF7HCS Sinf
COc1cc2c3c([nH]c2cn1)[C@@H](c1c(F)cc(NC2CN(CCCF)C2)cc1F)N(CC(F)(F)CO)[C@H](C)C3 [Example 161, 3-((1R,3R)-1-(2,6-Difluoro-4-((1-(3-fluoropropyl)azetidin-3-yl)amino)phenyl)-6-methoxy-3-methyl-3,4-dihydro-1H-pyrrolo[2,3-c:5,4-c′]dipyridin-2(9H)-yl)-2,2-difluoropropan-1-ol] | −97.3 | –
C[C@@H]1Cc2c([nH]c3ccccc23)[C@]2(CCc3cc(OCCN4CC(CF)C4)ccc32)N1CC(C)(C)F [Example 113, (1R,3′R)-2′-(2-fluoro-2-methylpropyl)-5-(2-(3-(fluoromethyl)azetidin-1-yl)ethoxy)-3′-methyl-2,2′,3,3′,4′,9′-hexahydrospiro[indene-1,1′-pyrido[3,4-b]indole]] | – | −94.7%
CC(C)C(=O)N1[C@H](c2c(F)cc(OCCN3CC(CF)C3)cc2F)c2sc3ccccc3c2C[C@H]1C (relative stereo) [Example 102, 1-((1,3-trans)-1-(2,6-difluoro-4-(2-(3-(fluoromethyl)azetidin-1-yl)ethoxy)phenyl)-3-methyl-3,4-dihydrobenzo[4,5]thieno[2,3-c]pyridin-2(1H)-yl)-2-methylpropan-1-one] | – | −64.5%
C[C@@H]1Cc2c([nH]c3ccccc23)[C@H]2c3c(F)cc(OCCN4CC(CF)C4)cc3OCC(F)(F)CN21 [Example 112, (10R,16bR)-1,7,7-Trifluoro-3-(2-(3-(fluoromethyl)azetidin-1-yl)ethoxy)-10-methyl-7,8,10,11,16,16b-hexahydro-6H-benzo[2′,3′][1,5]oxazocino[5′,4′:1,2]pyrido[3,4-b]indole] | – | −50%
C[C@H]1Cc2[nH]c3ccccc3c2[C@H](c2c(F)cc(NC3CN(CCCF)C3)cc2F)N1CC(F)(F)F [Example 153, N-(3,5-difluoro-4-((1R,3S)-3-methyl-2-(2,2,2-trifluoroethyl)-2,3,4,5-tetrahydro-1H-pyrido[4,3-b]indol-1-yl)-phenyl)-1-(3-fluoropropyl) azetidin-3-amine] | – | −30%
C[C@H]1Cc2sc3ccccc3c2[C@@H](c2ccc(OCCN3CC(CF)C3)cc2)N1CC(C)(C)F [Example 131, (1R,3S)-2-(2-fluoro-2-methylpropyl)-1-(4-(2-(3-(fluoromethyl)azetidin-1-yl)ethoxy)phenyl)-3-methyl-1,2,3,4-tetrahydrobenzo[4,5]thieno[3,2-c]pyridine] | – | −99%
C[C@@H]1Cc2c(oc3ccccc23)[C@@H](c2c(F)cc(NC3CN(CCCF)C3)cc2F)N1CC(F)(F)CO (single isomer, unassigned) [Example 157] | – | −102%
CC1Cc2c(c3ccccc3n2C)C(c2c(F)cc(OCCN3CC(CF)C3)cc2F)N1CC(C)(C)F (racemic) [Example 139, (±)-1-(2-6-difluoro-4-(2-(3-(fluoromethyl)azetidin-1-yl)ethoxy)phenyl)-2-(2-fluoro-2-methylpropyl)-3,5-dimethyl-2,3,4,5-tetrahydro-1H-pyrido[4,3-b] indole] | – | −88.6%
C[C@@H]1Cc2sc3ccccc3c2[C@@H](c2ccc(OCCN3CC(CF)C3)cc2)N1CC(C)(C)F [Example 128, (1R,3R)-2-(2-fluoro-2-methylpropyl)-1-(4-(2-(3-(fluoromethyl)azetidin-1-yl)ethoxy)phenyl)-3-methyl-1,2,3,4-tetrahydrobenzo[4,5]thieno[3,2-c]pyridine] | – | −101%
C[C@@H]1Cc2c([nH]c3ccccc23)[C@]2(Cc3ccc(OC4CN(CCCF)C4)cc3C2)N1CC(F)(F)F [Example 140] | – | −15%

Now from value to molecule:

ERalpha (WT) MCF7HCS (Sinf) (DMSO and fulvestrant define 0% and 100% change in ESR1, Table 1b) | ER-alpha MCF7HCS Sinf | Compound
– | −50% | C[C@@H]1CCN(CC(C)(C)F)[C@@H](c2c(F)cc(OCCN3CC(CF)C3)cc2F)c2[nH]c3ccccc3c21 [Example 126, (1S,5R)-1-(2,6-difluoro-4-(2-(3-(fluoromethyl)azetidin-1-yl)ethoxy)phenyl)-2-(2-fluoro-2-methylpropyl)-5-methyl-1,2,3,4,5,10-hexahydroazepino[3,4-b]indole]
– | −95.6% | CC(F)(CO)CN1CCCc2c([nH]c3ccccc23)[C@@H]1c1c(F)cc(OCCN2CC(CF)C2)cc1F (stereo partly drawn) [Example 119, 3-((S)-1-(2,6-difluoro-4-(2-(3-(fluoromethyl)azetidin-1-yl)ethoxy)phenyl)-3,4,5,10-tetrahydroazepino[3,4-b]indol-2(1H)-yl)-2-fluoro-2-methylpropan-1-ol]
– | −68% | CC(C)(F)CN1[C@H](c2c(F)cc(OCCN3CC(CF)C3)cc2F)c2[nH]c3ccccc3c2[C@H]2CC[C@H]21 [Example 138, (2aR,4R,9cR)-4-(2,6-difluoro-4-(2-(3-(fluoromethyl)azetidin-1-yl)ethoxy)phenyl)-3-(2-fluoro-2-methylpropyl)-2,2a,3,4,5,9c-hexahydro-1H-cyclobuta[5,6]pyrido[3,4-b]indole]
– | −93.5% | C[C@@H]1CCc2c([nH]c3ccccc23)[C@@H](c2c(F)cc(OCCN3CC(CF)C3)cc2F)N1CC(C)(C)F [Example 116, (1R,3R)-1-(2,6-difluoro-4-(2-(3-(fluoromethyl)azetidin-1-yl)ethoxy)phenyl)-2-(2-fluoro-2-methylpropyl)-3-methyl-1,2,3,4,5,10-hexahydroazepino[3,4-b]indole]
– | −75% | C[C@H]1CCN(CC(C)(C)F)[C@@H](c2c(F)cc(OCCN3CC(CF)C3)cc2F)c2[nH]c3ccccc3c21 [Example 124, (1S,5S)-1-(2,6-difluoro-4-(2-(3-(fluoromethyl)azetidin-1-yl)ethoxy)phenyl)-2-(2-fluoro-2-methylpropyl)-5-methyl-1,2,3,4,5,10-hexahydroazepino[3,4-b]indole]
– | −95.9% | C[C@](F)(CO)CN1CCCc2c([nH]c3ccccc23)[C@H]1c1c(F)cc(OCCN2CC(CF)C2)cc1F [Example 118, (R)-3-((R)-1-(2,6-difluoro-4-(2-(3-(fluoromethyl)azetidin-1-yl)ethoxy)phenyl)-3,4,5,10-tetrahydroazepino[3,4-b]indol-2(1H)-yl)-2-fluoro-2-methylpropan-1-ol]
– | −51% | C[C@H]1Cc2[nH]c3ccccc3c2[C@H](c2c(F)cc(OCCN3CC(CF)C3)cc2F)N1CC(C)(C)F (single isomer, unassigned) [Example 136]
